The subject of this assay is primary cerebellar granule neurones. Briefly: Neuroprotection by agonists with or without cAMP inhibitor Rp-cAMP (FIG. 4). In kind it is cell-based, rat. Particulars: Rp-cAMP 100 μM; agonists 10 nM; LY 294002 75 μM. On the procedure:
FIG. 4 illustrates percentage mean survival of primary cerebellar granule neurones, when in the presence of the PI 3-kinase inhibitor LY 294002 (75 μM) and also a CRF receptor agonist at 10 nM (CRF, urocortin, urotensin 1, or sauvagine), in the absence or presence of the cAMP inhibitor Rp-cAMP (100 μM). The columns from left to right represent: (1) control without LY 294002 or agonist; (2) control without agonist but with LY 294002; (columns 3, 5, 7, 9) with LY 294002 and either CRF, urocortin, urotensin 1, or sauvagine respectively; (columns 4, 6, 8, 10) as columns 3, 5, 7 and 9 respectively but additionally also with Rp-cAMP. The approx. 20% reduction in neuroprotection when in the presence of Rp-cAMP is clear.

Take `Nc1ncnc2c1ncn2[C@@H]1O[C@@H]2CO[P@@](O)(=S)O[C@H]2[C@H]1O` [Rp-cAMPS]: the “reduction of neuronal rescue provided by the CRF receptor agonists” value is on record as “about 20%”.

These data come from US20080113908A1, “Use of CRF receptor agonists for the treatment or Prophylaxis of diseases, for example Neurodegenerative diseases” (SmithKline Beecham plc, priority 2000, published 2008).
